Results taken from paper PMC12030706, “Novel ^177Lu-Labeled [Thz^14]Bombesin(6–14) Derivatives with Low Pancreas Accumulation for Targeting Gastrin-Releasing Peptide Receptor-Expressing Cancer” (Pharmaceuticals, 2025).

Tests used:
GRPR (PC-3 cells) = target: T1, GRPR (PC-3 cells) (Homo sapiens, UniProt P30550); assay: Fluorometric intracellular calcium release assay; format: cell-based; details: 50 nM, n = 3
T1 construct: GRPR-expressing prostate cancer PC-3 cells; host or cells: PC-3 prostate adenocarcinoma cells
Method: The antagonist/agonist characteristics of Lu-TacsBOMB5, Lu-LW01110, and Lu-LW01142 were determined following previously published procedure. A 96-well clear bottom black plate was seeded with 5 × 10^4 PC-3 prostate cancer cells/100 μL/well 24 h prior to the assay. The calcium-sensitive dye (FLIPR Calcium 6 assay kit from Molecular Devices, San Jose, CA, USA) in loading buffer (100 μL/well) was added into the 96-well plate, followed by 1 h incubation at 37 °C. After that, the plate was transferred into a FlexStation 3 microplate reader (Molecular Devices, San Jose, CA, USA). Lu-complexed nonradioactive standard (50 nM), [D-Phe^6,Leu-NHEt^13,des-Met^14]Bombesin(6–14) (50 nM, antagonist control), bombesin (50 nM, agonist control), adenosine triphosphate (ATP, 50 nM, positive control), or DPBS (blank control) was added, and the fluorescent signals were acquired for 2 min (λEx = 485 nm; λEm = 525 nm; n = 3). The relative fluorescent unit (RFU = max − min) was calculated to determine the agonistic/antagonistic characteristics for the tested ligands.

PC-3 tumor xenografts = details: in vivo, 1 h; cited from earlier work

T1 sequence (P30550 whole entry): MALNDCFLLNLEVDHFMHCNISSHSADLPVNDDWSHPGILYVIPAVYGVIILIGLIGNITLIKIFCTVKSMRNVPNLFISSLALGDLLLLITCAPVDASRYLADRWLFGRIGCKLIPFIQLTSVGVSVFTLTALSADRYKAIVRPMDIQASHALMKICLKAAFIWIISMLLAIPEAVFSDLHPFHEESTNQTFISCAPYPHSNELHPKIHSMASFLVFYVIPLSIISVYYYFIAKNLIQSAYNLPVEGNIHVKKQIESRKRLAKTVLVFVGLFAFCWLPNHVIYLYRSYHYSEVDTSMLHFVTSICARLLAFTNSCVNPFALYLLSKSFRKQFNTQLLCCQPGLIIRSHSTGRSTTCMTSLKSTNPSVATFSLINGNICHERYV

Row | Compound | Ca2+ efflux (RFU = max − min) (GRPR (PC-3 cells)) [RFUs] | uptake in PC-3 tumor xenografts (PC-3 tumor xenografts) [%ID/g]
1 | Nc1ncnc2c1ncn2[C@@H]1O[C@H](COP(=O)(O)OP(=O)(O)OP(=O)(O)O)[C@@H](O)[C@H]1O [ATP, adenosine triphosphate] | 150 ± 40.7 | –
2 | ^68Ga-DOTA-Pip-[D-Phe^6,NMe-Gly^11,Leu^13ψThz^14]Bombesin(6–14) [[^68Ga]Ga-TacsBOMB5] | – | 15.7 ± 2.17
3 | ^68Ga-DOTA-Pip-[D-Phe^6,Tle^10,NMe-His^12,Thz^14]Bombesin(6–14) [[^68Ga]Ga-LW01110] | – | 16.6 ± 1.60

Second part, led by results:

Row | Ca2+ efflux (RFU = max − min) (GRPR (PC-3 cells)) [RFUs] | Compound | uptake in PC-3 tumor xenografts (PC-3 tumor xenografts) [%ID/g]
4 | 29.7 ± 2.73 | [D-Phe^6,Leu-NHEt^13,des-Met^14]Bombesin(6–14) | –
5 | 235 ± 15.2 | bombesin | –
